From patent US11834496B2, “Composition of a drug carrier, pharmaceutical composition thereof, preparation method and use method thereof” (EOS BIOMATERIALS INC., priority 2020, dated 2023)

Assay: Drug release rate test of pharmaceutical composition (dialysis bag in PBS, HPLC)
Format: physicochemical
Settings: 37° C.; for drug release rate: gentamicin 50 mg, 200 ml PBS
Method: In this test, a total of 3 ml solutions of the first and second mixtures (the weight ratio of sodium alginate:tricalcium phosphate:methylcellulose:sodium hyaluronate:calcium chloride was 36:36:15:80:20) and 50 mg of gentamicin were mixed to prepare a pharmaceutical composition containing gentamicin to be an experimental group. Then, the pharmaceutical composition containing gentamicin was placed in a dialysis bag. At the same time, 50 mg of gentamicin was dissolved in 3 ml of water as a control group.
Next, two 500 ml beaker were respectively added with 200 ml of phosphate buffered saline (PBS) solution. The prepared solutions of the experimental group and control group were respectively placed in dialysis bags, which were then placed in the PBS solutions. After that, the beakers, containing the dialysis bag and the PBS solution, were slightly shaken at 37° C. to allow the release of the drug from the dialysis bag to the PBS solution. In the drug release period, the PBS solution of the experimental and control groups are sampled at 15 minutes, 30 minutes, 45 minutes, 60 minutes, 75 minutes, 90 minutes, 105 minutes, 120 minutes, 150 minutes, 180 minutes, 1 day, 2 days, 3 days, 4 days, 5 days, 6 days, and 7 days, from the time start shaking. The sampled volume of the PBS solutions in beakers was 1 mL, and 1 mL of fresh PBS solution was added back to the sampled beakers. The concentrations of the gentamicin released in the PBS solution from the dialysis bag were analyzed by high performance liquid chromatography (HPLC).

**Q.** With gentamicin as the substance, how does the “cumulative release amount of the gentamicin released in the PBS solution” value (PBS, in less than 30 hours) read?
**A.** ~100%

**Q.** And the drug release rate (within 180 hours, relative to experimental group)?
**A.** much faster

**Q.** And the drug release rate (within the first 3 hours)?
**A.** much faster
